Reference: patent publication US20240384268A1, “Oligonucleotides” (Hudson Institute of Medical Research, priority 2021, published 2024)
In the oligonucleotide strings, read from the 5' end, every base follows the letter of its sugar. An asterisk marks phosphorothioate; unmarked linkages are phosphodiester. Other units and linkages are bracketed, terminal groups are in braces. A string of capitals states the bases alone. d = 2'-deoxy (DNA); m = 2'-O-methyl

Target: cGAS (Homo sapiens, UniProt Q8N884)
Experiment: ISD70-driven IP-10 (and IFN-β) production in THP-1 cells, ELISA
Assay type: cell-based
Set-up: endogenous in cells; host or cells: THP-1 (undifferentiated)
Conditions: for cGAS-100 nM: averaged IP-10 levels relative to ISD70: THP-1, 100 nM ASO overnight, then ISD70 2.5 μg/ml 7-8 h, percentage of ISD70 only

Sequence of cGAS (Q8N884 whole entry): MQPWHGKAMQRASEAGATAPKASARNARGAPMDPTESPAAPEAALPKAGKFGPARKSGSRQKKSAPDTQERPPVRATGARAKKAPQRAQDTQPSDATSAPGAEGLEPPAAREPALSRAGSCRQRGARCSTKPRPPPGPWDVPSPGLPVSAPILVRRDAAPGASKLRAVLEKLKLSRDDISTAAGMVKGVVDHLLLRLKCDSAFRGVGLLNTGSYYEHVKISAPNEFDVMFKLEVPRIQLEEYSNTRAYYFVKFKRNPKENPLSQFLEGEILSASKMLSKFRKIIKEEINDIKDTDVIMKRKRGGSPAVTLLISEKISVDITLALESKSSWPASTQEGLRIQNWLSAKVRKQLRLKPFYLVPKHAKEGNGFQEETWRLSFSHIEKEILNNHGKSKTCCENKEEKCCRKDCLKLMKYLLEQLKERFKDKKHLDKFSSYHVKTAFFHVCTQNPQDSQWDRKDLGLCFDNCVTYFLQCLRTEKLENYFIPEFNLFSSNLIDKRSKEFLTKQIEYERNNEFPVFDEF

| Substance | cGAS-100 nM: averaged IP-10 levels relative to ISD70 | cGAS 100 nM (MOE-modified ASO at 100 nM, averaged IP-10 levels relative to ISD70 condition) |
| --- | --- | --- |
| mA*mA*mA*mG*mA*T*T*A*T*C*T*T*C*T*T*mU*mU*mA*mA*mU (mA*mA*mA*mG*mA*dT*dT*dA*dT*dC*dT*dT*dC*dT*dT*mU*mU*mA*mA*mU) [[CDKN2B-AS1]2132] | 74.59% | – |
| mG*mU*mU*mC*mA*G*T*C*A*G*A*T*C*G*C*mU*mG*mG*mG*mA (mG*mU*mU*mC*mA*dG*dT*dC*dA*dG*dA*dT*dC*dG*dC*mU*mG*mG*mG*mA) [[LINC-PINT]412 KL] | 93.74% | – |
| TTTGCACACTTCGTACCCAA (antisense; 2'-MOE modified, pattern not given here) [CAMSAP1-4916 MOE] | – | 0.335 |
| mA*mA*mU*mU*mU*A*A*A*G*C*A*T*G*A*A*mU*mA*mU*mU*mA (mA*mA*mU*mU*mU*dA*dA*dA*dG*dC*dA*dT*dG*dA*dA*mU*mA*mU*mU*mA) [[CDKN2B-AS1]645] | 67.63% | – |
